Measured values published in patent US7176320B2, “Benzimidazole derivative” (Teijin Limited, priority 2000, dated 2007).

Key:
[1] = In vitro metabolism test using liver microsomes (Ms); format: in vitro ADME; conditions: liver microsomes 1.0 mg/mL, substrate 5.0 μM, NADPH 1.0 mM, 37° C.; for MR (metabolic rate at its maximum): pH 7.4
Description: The metabolic rate was determined from the decrease in the amount of the unchanged form at each reaction time and the reaction time based on assigning a value of 100% to the amount of the unchanged form at the initial concentration (reaction time: 0 minutes), and the metabolic rate at the time the metabolic rate reached a maximum was evaluated as the MR value. M=(substrate concentration at reaction time: 0 min.−substrate concentration after reaction)÷reaction time÷protein concentration (nmol/min./mg protein)

[2] = biological target: T1, recombinant human mast cell chymase (Homo sapiens, UniProt P23946); assay: Measurement of inhibition of enzyme activity of recombinant human mast cell chymase; format: biochemical; conditions: active human mast cell chymase, substrate succinyl-alanyl-histidyl-prolyl-phenylalanylparanitroanilide, 5 minutes at room temperature, absorbance 405 nm; read-out: inhibitory activity IC50
T1 construct: made in house; host or cells: insect cells (Th5) infected with recombinant baculovirus
T1 sequence (P23946 22-247): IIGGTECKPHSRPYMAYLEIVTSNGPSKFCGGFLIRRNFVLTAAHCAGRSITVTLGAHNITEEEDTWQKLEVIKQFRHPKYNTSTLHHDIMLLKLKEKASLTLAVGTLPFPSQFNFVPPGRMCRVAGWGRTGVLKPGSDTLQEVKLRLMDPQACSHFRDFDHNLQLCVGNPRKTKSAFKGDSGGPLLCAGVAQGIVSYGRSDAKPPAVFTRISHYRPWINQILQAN
Description: Recombinant human mast cell chymase was prepared in accordance with the report of Urata, et al. (Journal of Biological Chemistry, Vol. 266, p. 17173 (1991)). Namely, human mast cell chymase was purified by heparin sepharose (Pharmacia) from a culture supernatant of insect cells (Th5) infected with recombinant baculovirus containing cDNA coding for human mast cell chymase. Moreover, after activating in accordance with the report of Murakami, et al. (Journal of Biological Chemistry, Vol. 270, p. 2218 (1995)), the human mast cell chymase was purified with heparin sepharose to obtain active human mast cell chymase.
After adding 2 μl of DMSO solution containing a compound of the present invention to 50 μl of Buffer A (0.5–3.0 M NaCl, 50 mM Tris-HCl, pH 8.0) containing 1–5 ng of the active human mast cell chymase obtained in Example 16, 50 μl of Buffer A containing 0.5 mM succinyl-alanyl-histidyl-prolyl-phenylalanylparanitroanilide (Bacchem) as substrate were added and allowed to react for 5 minutes at room temperature. The changes over time in absorbance at 405 nm were measured to investigate inhibitory activity.

[3] = Measurement of blood concentration during administration by intragastric forced feeding to rats; format: in vivo, rat; conditions: male SD rats, fasting, 30 mg/kg, serum
Description: The compounds indicated with the above compound nos. 39, 52 and 244 were administered by intragastric forced feeding to male SD rats while fasting at a dose of 30 mg/kg, after which blood samples were collected immediately after administration and at 30 minutes and 1, 2 and 4 hours after administration. Following collection of blood samples, where samples were immediately separated into serum components, the compound of the present invention was extracted by ordinary solid phase extraction methods, and the resulting samples were analyzed by HPLC using an ODS column (32% acetonitrile-water-0.05% TFA was used for the mobile phase for compound nos. 52 and 244, while 47% acetonitrile-water-10 mM ammonium acetate buffer (pH 4.0) was used for the mobile phase for compound no. 39) followed by measurement of the amount of the unchanged form.

[4] = 30 minutes after administration

Percentage of substrate remaining after 30 min. [1] | MR (metabolic rate at its maximum) [1] | IC50 [2] | SMILES | further results
– | – | 0.001 to 0.01 µM | COc1ccc2nc(SCCCC(=O)O)n(Cc3csc4ccc(C)cc34)c2c1 [Compound No. 1112, 4-(1-((5-methylbenzothiophene-3-yl)methyl)-6-methoxybenzimidazole-2-ylthio)butanoic acid] | –
– | – | 0.01 to 0.1 µM | COc1ccc2c(c1)nc(SCCCC(=O)O)n2Cc1csc2ccc(C)cc12 [Compound No. 152, 4-(1-((5-methylbenzothiophene-3-yl)methyl)-5-methoxybenzimidazole-2-ylthio)butanoic acid] | –
– | – | 0.001 to 0.01 µM | COc1ccc2nc(SCCCC(=O)O)n(Cc3csc4cccc(C)c34)c2c1 [Compound No. 1114, 4-(1-((4-methylbenzothiophene-3-yl)methyl)-6-methoxybenzimidazole-2-ylthio)butanoic acid] | –
41.2% | 0.111 nmol/min./mg protein | – | Cc1ccc2scc(Cn3c(SCCCC(=O)O)nc4ccccc43)c2c1 [Compound No. 56] | –
– | – | 0.001 to 0.01 µM | COc1ccc2c(c1)nc(SCCCC(=O)O)n2Cc1csc2cccc(C)c12 [Compound No. 154, 4-(1-((4-methylbenzothiophene-3-yl)methyl)-5-methoxybenzimidazole-2-ylthio)butanoic acid] | –
55.2% | 0.097 nmol/min./mg protein | 0.01 to 0.1 µM | COc1ccc2c(c1)nc(SCCCC(=O)O)n2Cc1cn(C)c2cccc(C)c12 [Compound No. 135] | –
– | – | 0.01 to 0.1 µM | Cc1ccc2nc(SCCCC(=O)O)n(Cc3csc4ccccc34)c2c1 [Compound No. 436] | –
– | – | 0.001 to 0.01 µM | COc1ccc2c(c1)nc(SCCCC(=O)O)n2Cc1csc2ccccc12 [Compound No. 148, 4-(1-((benzothiophene-3-yl)methyl)-5-methoxybenzimidazole-2-ylthio)butanoic acid] | –
56.3% | 0.131 nmol/min./mg protein | – | Cc1ccc2scc(Cn3c(SCCCC(=O)O)nc4cc(C)c(C)cc43)c2c1 [compound 536] | –

Further lines, the compound ahead of its results:

SMILES | Percentage of substrate remaining after 30 min. [1] | MR (metabolic rate at its maximum) [1] | IC50 [2] | further results
Cc1cc2nc(SCCCC(=O)O)n(Cc3cn(C)c4ccccc34)c2cc1C [compound 514] | 48.7% | 0.087 nmol/min./mg protein | – | –
Cc1cc2nc(SCCCC(=O)O)n(Cc3csc4ccccc34)c2cc1C [Compound No. 532] | 36.2% | 0.277 nmol/min./mg protein | 0.001 to 0.01 µM | –
Cn1cc(Cn2c(SCCCC(=O)O)nc3ccccc32)c2ccccc21 [Compound No. 34, 4-(1-((1-methylindole-3-yl)methyl)benzimidazole-2-ylthio)butanoic acid] | 60.3% | 0.260 nmol/min./mg protein | 0.01 to 0.1 µM | –
N#Cc1ccc2c(c1)nc(SCCCC(=O)O)n2Cc1csc2ccccc12 [Compound No. 244] | 57.9% | 0.211 nmol/min./mg protein | – | Blood concentration of the unchanged form After 30 min. [3, 4]: 16500 ng/mL; Blood concentration of the unchanged form After 4 hr. ([3]; 4 hours after administration): 8900 ng/mL
Cc1cc2nc(SCCCC(=O)O)n(Cc3cn(C)c4cccc(C)c34)c2cc1C [Compound No. 519] | 52.9% | 0.102 nmol/min./mg protein | 0.001 to 0.01 µM | –
Cc1cccc2c1c(Cn1c(SCCCC(=O)O)nc3ccccc31)cn2C [Compound No. 39] | 80.1% | 0 nmol/min./mg protein | 0.001 to 0.01 µM | concentration at 30 min ([3]; rat, oral, 30 minutes after administration, read-out: Blood concentration of the unchanged form After 30 min.): 16100 ng/mL; concentration at 4 h ([3]; rat, oral, 4 hours after administration, read-out: Blood concentration of the unchanged form After 4 hr.): 6300 ng/mL
O=C(O)CCCSc1nc2cc(Cl)c(Cl)cc2n1Cc1csc2ccccc12 [compound 628] | – | – | 0.01 to 0.1 µM | –
O=C(O)CCCSc1nc2ccccc2n1Cc1csc2ccccc12 [Compound No. 52] | 47.5% | 0.331 nmol/min./mg protein | – | Blood concentration of the unchanged form After 30 min. [3, 4]: 60500 ng/mL; Blood concentration of the unchanged form After 4 hr. ([3]; 4 hours after administration): 12700 ng/mL
